Literature values, collected in PMC9516332 (Frontiers in Oncology, 2022).
Like-named read-outs stand apart in the source and are kept apart here.

How the values were obtained:
Details in all cases: cited from earlier work
[1] = target: panel of 255 wild-type kinases (Homo sapiens, UniProt Q9P289)
[2] = target: panel of 255 wild-type kinases (Homo sapiens, UniProt Q9BUB5)
[3] = target: panel of 255 wild-type kinases (Homo sapiens, UniProt Q9UBS0)
[4] = target: panel of 255 wild-type kinases (Homo sapiens, UniProt P53355)
[5] = target: T1, panel of 255 wild-type kinases (Homo sapiens, UniProt P52333)
T1 sequence (P52333 1-1124): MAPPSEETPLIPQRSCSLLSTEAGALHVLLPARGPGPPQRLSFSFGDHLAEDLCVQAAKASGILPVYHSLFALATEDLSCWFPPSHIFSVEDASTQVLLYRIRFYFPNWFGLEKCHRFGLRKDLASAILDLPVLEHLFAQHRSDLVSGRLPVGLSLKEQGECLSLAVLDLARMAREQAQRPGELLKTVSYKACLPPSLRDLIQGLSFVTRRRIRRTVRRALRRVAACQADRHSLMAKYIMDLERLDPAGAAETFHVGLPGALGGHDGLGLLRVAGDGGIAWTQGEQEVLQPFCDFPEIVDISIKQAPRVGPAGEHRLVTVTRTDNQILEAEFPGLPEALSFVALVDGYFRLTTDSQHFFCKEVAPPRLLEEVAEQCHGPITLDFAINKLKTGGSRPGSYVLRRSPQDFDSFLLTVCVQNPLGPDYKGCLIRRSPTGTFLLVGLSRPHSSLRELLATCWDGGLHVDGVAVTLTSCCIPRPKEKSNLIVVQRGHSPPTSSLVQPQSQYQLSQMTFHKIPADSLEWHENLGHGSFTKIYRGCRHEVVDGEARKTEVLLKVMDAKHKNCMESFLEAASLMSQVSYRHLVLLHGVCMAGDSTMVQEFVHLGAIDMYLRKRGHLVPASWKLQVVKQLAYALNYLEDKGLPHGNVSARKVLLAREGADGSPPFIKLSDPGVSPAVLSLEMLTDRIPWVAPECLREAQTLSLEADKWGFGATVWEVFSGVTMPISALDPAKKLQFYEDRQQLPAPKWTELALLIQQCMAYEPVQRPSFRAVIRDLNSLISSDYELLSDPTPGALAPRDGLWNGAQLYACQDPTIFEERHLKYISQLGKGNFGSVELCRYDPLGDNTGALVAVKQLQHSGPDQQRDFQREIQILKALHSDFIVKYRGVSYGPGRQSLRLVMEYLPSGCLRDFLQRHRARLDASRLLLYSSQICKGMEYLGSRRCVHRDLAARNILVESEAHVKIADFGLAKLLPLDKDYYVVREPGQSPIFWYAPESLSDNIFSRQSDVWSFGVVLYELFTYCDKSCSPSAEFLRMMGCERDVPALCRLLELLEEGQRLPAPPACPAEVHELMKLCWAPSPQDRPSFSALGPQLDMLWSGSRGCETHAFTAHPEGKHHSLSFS

[6] = target: panel of 255 wild-type kinases (Homo sapiens, UniProt Q86V86)
[7] = target: T2, panel of 255 wild-type kinases (Homo sapiens, UniProt O15146)
T2 sequence (O15146 24-869): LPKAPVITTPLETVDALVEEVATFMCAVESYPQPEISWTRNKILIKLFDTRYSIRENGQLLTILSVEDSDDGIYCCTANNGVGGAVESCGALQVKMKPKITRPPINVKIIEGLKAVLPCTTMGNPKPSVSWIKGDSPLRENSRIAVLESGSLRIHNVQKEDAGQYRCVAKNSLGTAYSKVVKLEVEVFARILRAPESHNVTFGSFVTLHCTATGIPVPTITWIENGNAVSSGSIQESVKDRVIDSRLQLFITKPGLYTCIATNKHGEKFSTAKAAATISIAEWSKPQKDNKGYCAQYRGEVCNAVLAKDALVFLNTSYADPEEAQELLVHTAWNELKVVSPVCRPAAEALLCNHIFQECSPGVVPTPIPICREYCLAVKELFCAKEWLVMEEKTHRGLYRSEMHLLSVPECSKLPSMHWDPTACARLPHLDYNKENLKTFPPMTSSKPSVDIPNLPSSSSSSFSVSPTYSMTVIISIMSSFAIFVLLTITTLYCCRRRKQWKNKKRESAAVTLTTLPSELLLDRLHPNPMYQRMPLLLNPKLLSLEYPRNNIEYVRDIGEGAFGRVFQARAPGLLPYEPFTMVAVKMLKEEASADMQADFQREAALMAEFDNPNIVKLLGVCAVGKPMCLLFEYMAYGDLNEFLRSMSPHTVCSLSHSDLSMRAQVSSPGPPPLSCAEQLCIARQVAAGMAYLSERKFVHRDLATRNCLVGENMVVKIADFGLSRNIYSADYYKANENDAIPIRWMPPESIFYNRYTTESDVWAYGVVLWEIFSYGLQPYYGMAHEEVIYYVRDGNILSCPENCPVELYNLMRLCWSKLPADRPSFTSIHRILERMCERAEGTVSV

[8] = MST4, 1 µmol/L single concentration, ref DOI: 10.1371/journal.pone.0092146
[9] = MNK1, 1 µmol/L single concentration, ref DOI: 10.1371/journal.pone.0092146
[10] = p70S6Kβ, 1 µmol/L single concentration, ref DOI: 10.1371/journal.pone.0092146
[11] = kinase DAPK1, 1 µmol/L single concentration, ref DOI: 10.1371/journal.pone.0092146
[12] = kinase JAK3, 1 µmol/L single concentration, ref DOI: 10.1371/journal.pone.0092146
[13] = kinase PIM3, 1 µmol/L single concentration, ref DOI: 10.1371/journal.pone.0092146
[14] = MUSK, 1 µmol/L single concentration, ref DOI: 10.1371/journal.pone.0092146
[15] = MST4, 1 µmol/L single concentration, ref DOI: 10.1158/1535-7163.MCT-18-0877
[16] = MNK1, 1 µmol/L single concentration, ref DOI: 10.1158/1535-7163.MCT-18-0877
[17] = p70S6Kβ, 1 µmol/L single concentration, ref DOI: 10.1158/1535-7163.MCT-18-0877
[18] = kinase DAPK1, 1 µmol/L single concentration, ref DOI: 10.1158/1535-7163.MCT-18-0877
[19] = kinase JAK3, 1 µmol/L single concentration, ref DOI: 10.1158/1535-7163.MCT-18-0877
[20] = kinase PIM3, 1 µmol/L single concentration, ref DOI: 10.1158/1535-7163.MCT-18-0877
[21] = MUSK, 1 µmol/L single concentration, ref DOI: 10.1158/1535-7163.MCT-18-0877

| SMILES | %-inhibition, MST4 [1, 8] [%] | %-inhibition, MNK1 [2, 9] [%] | %-inhibition, p70S6Kβ [3, 10] [%] | %-inhibition at 1 µmol/L, DAPK1 [4, 11] [%] | %-inhibition at 1 µmol/L, JAK3 [5, 12] [%] | %-inhibition at 1 µmol/L, PIM3 [6, 13] [%] | %-inhibition, MUSK [7, 14] [%] | %-inhibition, MST4 [1, 15] [%] | %-inhibition, MNK1 [2, 16] [%] | %-inhibition, p70S6Kβ [3, 17] [%] | %-inhibition at 1 µmol/L, DAPK1 [4, 18] [%] | %-inhibition at 1 µmol/L, JAK3 [5, 19] [%] | %-inhibition at 1 µmol/L, PIM3 [6, 20] [%] | %-inhibition, MUSK [7, 21] [%] | also measured |
| --- | --- | --- | --- | --- | --- | --- | --- | --- | --- | --- | --- | --- | --- | --- | --- |
| CCCS(=O)(=O)Nc1ccc(F)c(C(=O)c2c[nH]c3ncc(-c4ccc(Cl)cc4)cc23)c1F [vemurafenib] | -4.62 | 23 | 0.235 | -0.115 | 10 | -5 | -0.285 |  |  |  |  |  |  |  |  |
| CC(=O)Nc1cccc(-n2c(=O)n(C3CC3)c(=O)c3c(Nc4ccc(I)cc4F)n(C)c(=O)c(C)c32)c1 [trametinib] | -2.23 | -3 | -1 | -6 | 6 | 8.44 | -0.929 |  |  |  |  |  |  |  |  |
| CCc1cc2c(cc1N1CCC(N3CCOCC3)CC1)C(C)(C)c1[nH]c3cc(C#N)ccc3c1C2=O [alectinib] |  |  |  |  |  |  |  | -7 | 18 | 9 | 58 | 5.58 | 52 | 6 |  |
| CC(C)(C)c1nc(-c2cccc(NS(=O)(=O)c3c(F)cccc3F)c2F)c(-c2ccnc(N)n2)s1 [dabrafenib] | -7 | 20 | -0.554 | -0.54 | 22 | 9 | 16 |  |  |  |  |  |  |  |  |
| CC#CC(=O)N1CCC[C@H]1c1nc(-c2ccc(C(=O)Nc3ccccn3)cc2)c2c(N)nccn12 [acalabrutinib] |  |  |  |  |  |  |  | -6.42 | 12 | -14 | -17 | -1 | -0.0376 | -0.581 |  |
| O=C(c1ccc(F)c(F)c1Nc1ccc(I)cc1F)N1CC(O)([C@@H]2CCCCN2)C1 [cobimetinib] |  |  |  |  |  |  |  | -0.477 | 14 | 5.59 | -4 | -3.25 | -0.814 | 2.78 |  |
| C=CC(=O)Nc1cc(Nc2nccc(-c3cn(C)c4ccccc34)n2)c(OC)cc1N(C)CCN(C)C [osimertinib] |  |  |  |  |  |  |  | 1.61 | 99 | 20 | 29 | 97 | 15 | 8 |  |
| Cc1cc(Nc2ncc(Cl)c(Nc3ccccc3S(=O)(=O)C(C)C)n2)c(OC(C)C)cc1C1CCNCC1 [ceritinib] |  |  |  |  |  |  |  | 4 | -1.9 | 70 | 6 | 2.84 | -0.463 | 45 |  |
| CO[C@@H]1[C@H](N(C)C(=O)c2ccccc2)C[C@H]2O[C@]1(C)n1c3ccccc3c3c4c(c5c6ccccc6n2c5c31)C(=O)NC4 [midostaurin] |  |  |  |  |  |  |  | 52 | 50 | 69 | 57 | 100 | 71 | 94 |  |
| COc1cc(N2CCC(N3CCN(C)CC3)CC2)ccc1Nc1ncc(Cl)c(Nc2ccccc2P(C)(C)=O)n1 [brigatinib] |  |  |  |  |  |  |  |  |  |  |  |  |  |  | %-inhibition, MST4 [1]: -1.25%; %-inhibition, MNK1 [2]: 16%; %-inhibition, p70S6Kβ [3]: 98%; %-inhibition at 1 µmol/L, DAPK1 [4]: 83%; %-inhibition at 1 µmol/L, JAK3 [5]: 97%; %-inhibition at 1 µmol/L, PIM3 [6]: 5.69%; %-inhibition, MUSK [7]: 82% |
| C=CC(=O)N1CCC[C@@H](n2nc(-c3ccc(Oc4ccccc4)cc3)c3c(N)ncnc32)C1 [ibrutinib] |  |  |  |  |  |  |  | 1.46 | 15 | 0.87 | -3.8 | 91 | -0.241 | 1.76 |  |
| C[C@@H](Oc1cc(-c2cnn(C3CCNCC3)c2)cnc1N)c1c(Cl)ccc(F)c1Cl [crizotinib] | 0.54 | 0 | 6 | -4 | 77 | -4 | 99 |  |  |  |  |  |  |  |  |
